# Tested on: UM16 cell line
# Assay: GSEA of Bru-seq data (hallmark, KEGG, GO pathways, transcription factors)
# Type: cell-based
# Conditions: 4 hours
# From the text: Consistent with this observation, there are also massive metabolite pathways influenced including starch and sucrose metabolism, glycolysis and gluconeogenesis, purine metabolism, pyrimidine metabolism, N-glycan biosynthesis, etc.
smiles,measurement,setting,value
"CCOC(=O)[C@@H]1CCCN(S(=O)(=O)c2ccc(S(=O)(=O)N(CC)CC)cc2)C1 [DX2-201, ethyl (R)-1-((4-(N,N-diethylsulfamoyl)phenyl)sulfonyl)piperidine-3-carboxylate]",ES KEGG_AMINOACYL_TRNA_BIOSYNTHESIS,5 pM,−0.4260
same,ES KEGG_DNA_REPLICATION,5 pM,−0.5795
same,ES KEGG_NUCLEOTIDE_EXCISION_REPAIR,5 pM,−0.4603
same,ES KEGG_N_GLYCAN_BIOSYNTHESIS,5 pM,−0.5360
same,ES KEGG_OXIDATIVE_PHOSPHORYLATION,5 pM,−0.4451
same,ES KEGG_PARKINSONS_DISEASE,5 pM,−0.4446
same,ES KEGG_PROTEASOME,5 pM,−0.5628
same,ES KEGG_PURINE_METABOLISM,5 pM,−0.4914
same,ES KEGG_PYRIMIDINE_METABOLISM,5 pM,−0.4987
same,ES KEGG_RNA_POLYMERASE,5 pM,−0.6348
same,ES KEGG_SPLICEOSOME,5 pM,−0.4510
same,NES KEGG_ALZHEIMERS_DISEASE,5 pM,−1.6021
same,NES KEGG_AMINOACYL_TRNA_BIOSYNTHESIS,5 pM,−1.4417
same,NES KEGG_DNA_REPLICATION,5 pM,−1.9358
same,NES KEGG_HUNTINGTONS_DISEASE,5 pM,−1.7040
same,NES KEGG_MISMATCH_REPAIR,5 pM,−1.8751
same,NES KEGG_NUCLEOTIDE_EXCISION_REPAIR,5 pM,−1.5835
same,NES KEGG_N_GLYCAN_BIOSYNTHESIS,5 pM,−1.8440
same,NES KEGG_OXIDATIVE_PHOSPHORYLATION,5 pM,−1.7650
same,NES KEGG_PARKINSONS_DISEASE,5 pM,−1.7382
same,NES KEGG_PROTEASOME,5 pM,−1.9164
same,NES KEGG_PURINE_METABOLISM,5 pM,−2.0380
same,NES KEGG_PYRIMIDINE_METABOLISM,5 pM,−1.9279
same,NES KEGG_SPLICEOSOME,5 pM,−1.8728
same,ES GO_ADP_METABOLIC_PROCESS,5 μM,0.6343
same,ES GO_ATP_GENERATION_FROM_ADP,5 μM,0.6848
same,ES GO_GLUCOSE_CATABOLIC_PROCESS,5 μM,0.7209
same,ES GO_HEXOSE_CATABOLIC_PROCESS,5 μM,0.6548
same,ES GO_MONOSACCHARIDE_CATABOLIC_PROCESS,5 μM,0.5791
same,ES GO_NADH_METABOLIC_PROCESS,5 μM,0.6704
same,ES GO_NEGATIVE_REGULATION_OF_FAT_CELL_DIFFERENTIATION,5 μM,0.6098
same,ES GO_NUCLEOTIDE_PHOSPHORYLATION,5 μM,0.5920
same,ES GO_PYRUVATE_METABOLIC_PROCESS,5 μM,0.6035
same,ES GO_RESPONSE_TO_OXYGEN_LEVELS,5 μM,0.4230
same,ES GO_RIBONUCLEOSIDE_DIPHOSPHATE_METABOLIC_PROCESS,5 μM,0.5746
same,ES HALLMARK_ALLOGRAFT_REJECTION,5 μM,0.2962
same,ES HALLMARK_ANDROGEN_RESPONSE,5 μM,0.3155
same,ES HALLMARK_ANGIOGENESIS,5 μM,−0.5078
same,ES HALLMARK_APOPTOSIS,5 μM,0.3812
same,ES HALLMARK_BILE_ACID_METABOLISM,5 μM,0.3249
same,ES HALLMARK_CHOLESTEROL_HOMEOSTASIS,5 μM,0.4969
same,ES HALLMARK_DNA_REPAIR,5 μM,−0.4085
same,ES HALLMARK_E2F_TARGETS,5 μM,−0.3804
same,ES HALLMARK_ESTROGEN_RESPONSE_LATE,5 μM,0.3437
same,ES HALLMARK_FATTY_ACID_METABOLISM,5 μM,0.2942
same,ES HALLMARK_GLYCOLYSIS,5 μM,0.4109
same,ES HALLMARK_HEDGEHOG_SIGNALING,5 μM,0.4848
same,ES HALLMARK_HEME_METABOLISM,5 μM,0.3641
same,ES HALLMARK_HYPOXIA,5 μM,0.6294
same,ES HALLMARK_IL2_STAT5_SIGNALING,5 μM,0.3402
same,ES HALLMARK_INFLAMMATORY_RESPONSE,5 μM,0.2995
same,ES HALLMARK_KRAS_SIGNALING_DN,5 μM,0.3965
same,ES HALLMARK_MITOTIC_SPINDLE,5 μM,0.3104
same,ES HALLMARK_MTORC1_SIGNALING,5 μM,0.2680
same,ES HALLMARK_MYC_TARGETS_V1,5 μM,−0.5426
same,ES HALLMARK_MYC_TARGETS_V2,5 μM,−0.6265
same,ES HALLMARK_MYOGENESIS,5 μM,0.3657
same,ES HALLMARK_OXIDATIVE_PHOSPHORYLATION,5 μM,−0.3812
same,ES HALLMARK_P53_PATHWAY,5 μM,0.3403
same,ES HALLMARK_TNFA_SIGNALING_VIA_NFKB,5 μM,0.3199
same,ES HALLMARK_UNFOLDED_PROTEIN_RESPONSE,5 μM,−0.3254
same,ES HALLMARK_UV_RESPONSE_DN,5 μM,0.3784
same,ES HALLMARK_XENOBIOTIC_METABOLISM,5 μM,0.2890
same,ES KEGG_DORSO_VENTRAL_AXIS_FORMATION,5 μM,0.6614
same,ES KEGG_GLYCOLYSIS_GLUCONEOGENESIS,5 μM,0.5362
same,ES KEGG_LEISHMANIA_INFECTION,5 μM,0.5017
same,ES KEGG_REGULATION_OF_AUTOPHAGY,5 μM,0.5972
same,ES KEGG_RENAL_CELL_CARCINOMA,5 μM,0.4210
same,ES KEGG_STARCH_AND_SUCROSE_METABOLISM,5 μM,0.7356
same,ES KEGG_TYPE_II_DIABETES_MELLITUS,5 μM,0.5316
same,NES GO_ADP_METABOLIC_PROCESS,5 μM,2.1062
same,NES GO_ATP_GENERATION_FROM_ADP,5 μM,2.0929
same,NES GO_GLUCOSE_CATABOLIC_PROCESS,5 μM,2.1191
same,NES GO_HEXOSE_CATABOLIC_PROCESS,5 μM,2.1301
same,NES GO_MONOSACCHARIDE_CATABOLIC_PROCESS,5 μM,1.9771
same,NES GO_NADH_METABOLIC_PROCESS,5 μM,2.0814
same,NES GO_NEGATIVE_REGULATION_OF_FAT_CELL_DIFFERENTIATION,5 μM,1.9052
same,NES GO_NUCLEOTIDE_PHOSPHORYLATION,5 μM,2.0727
same,NES GO_PYRUVATE_METABOLIC_PROCESS,5 μM,2.1281
same,NES GO_RESPONSE_TO_OXYGEN_LEVELS,5 μM,1.9612
same,NES GO_RIBONUCLEOSIDE_DIPHOSPHATE_METABOLIC_PROCESS,5 μM,2.0919
same,NES HALLMARK_ALLOGRAFT_REJECTION,5 μM,1.2241
same,NES HALLMARK_ANDROGEN_RESPONSE,5 μM,1.3002
same,NES HALLMARK_ANGIOGENESIS,5 μM,−1.4124
same,NES HALLMARK_APOPTOSIS,5 μM,1.6931
same,NES HALLMARK_BILE_ACID_METABOLISM,5 μM,1.2479
same,NES HALLMARK_CHOLESTEROL_HOMEOSTASIS,5 μM,1.9354
same,NES HALLMARK_DNA_REPAIR,5 μM,−1.7322
same,NES HALLMARK_E2F_TARGETS,5 μM,−1.7010
same,NES HALLMARK_ESTROGEN_RESPONSE_LATE,5 μM,1.5630
same,NES HALLMARK_FATTY_ACID_METABOLISM,5 μM,1.2729
same,NES HALLMARK_GLYCOLYSIS,5 μM,1.8782
same,NES HALLMARK_HEDGEHOG_SIGNALING,5 μM,1.3854
same,NES HALLMARK_HEME_METABOLISM,5 μM,1.6288
same,NES HALLMARK_HYPOXIA,5 μM,2.8139
same,NES HALLMARK_IL2_STAT5_SIGNALING,5 μM,1.5174
same,NES HALLMARK_INFLAMMATORY_RESPONSE,5 μM,1.2667
same,NES HALLMARK_KRAS_SIGNALING_DN,5 μM,1.4318
same,NES HALLMARK_MITOTIC_SPINDLE,5 μM,1.4709
same,NES HALLMARK_MTORC1_SIGNALING,5 μM,1.2451
same,NES HALLMARK_MYC_TARGETS_V1,5 μM,−2.4192
same,NES HALLMARK_MYC_TARGETS_V2,5 μM,−2.2565
same,NES HALLMARK_MYOGENESIS,5 μM,1.5149
same,NES HALLMARK_OXIDATIVE_PHOSPHORYLATION,5 μM,−1.6882
same,NES HALLMARK_P53_PATHWAY,5 μM,1.5682
same,NES HALLMARK_TNFA_SIGNALING_VIA_NFKB,5 μM,1.4745
same,NES HALLMARK_UNFOLDED_PROTEIN_RESPONSE,5 μM,−1.3390
same,NES HALLMARK_UV_RESPONSE_DN,5 μM,1.6434
same,NES HALLMARK_XENOBIOTIC_METABOLISM,5 μM,1.2573
same,NES KEGG_DORSO_VENTRAL_AXIS_FORMATION,5 μM,1.9145
same,NES KEGG_GLYCOLYSIS_GLUCONEOGENESIS,5 μM,1.8482
same,NES KEGG_LEISHMANIA_INFECTION,5 μM,1.6760
same,NES KEGG_REGULATION_OF_AUTOPHAGY,5 μM,1.7250
same,NES KEGG_RENAL_CELL_CARCINOMA,5 μM,1.6054
same,NES KEGG_STARCH_AND_SUCROSE_METABOLISM,5 μM,2.1177
same,NES KEGG_TYPE_II_DIABETES_MELLITUS,5 μM,1.6335

# Source: US20230212122A1, “MITOCHONDRIAL TARGETING COMPOUNDS FOR THE TREATMENT OF ASSOCIATED DISEASES” (The Regents of the University of Michigan, priority 2020, published 2023)
